Experimental data: article PMC5079764 (Bioorganic & medicinal chemistry, 2016)

Assays:
[1] = biological target: H1 receptor (Homo sapiens, UniProt P35367); conditions: Table 1; cited from earlier work
[2] = biological target: T1, D4 receptor (Homo sapiens, UniProt P21917); conditions: Table 1; cited from earlier work
T1 sequence (P21917 1-419): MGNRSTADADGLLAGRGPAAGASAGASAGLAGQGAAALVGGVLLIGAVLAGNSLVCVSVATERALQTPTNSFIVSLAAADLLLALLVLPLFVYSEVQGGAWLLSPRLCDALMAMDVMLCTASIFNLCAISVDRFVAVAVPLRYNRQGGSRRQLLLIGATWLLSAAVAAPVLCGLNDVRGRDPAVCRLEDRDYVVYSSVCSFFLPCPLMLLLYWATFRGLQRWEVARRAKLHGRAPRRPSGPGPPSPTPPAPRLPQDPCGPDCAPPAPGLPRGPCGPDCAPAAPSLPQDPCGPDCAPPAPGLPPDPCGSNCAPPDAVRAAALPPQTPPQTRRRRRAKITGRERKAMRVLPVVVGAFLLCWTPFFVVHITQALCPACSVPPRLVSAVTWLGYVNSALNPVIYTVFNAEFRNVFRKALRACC

[3] = biological target: T2, 5-HT2B receptor (Homo sapiens, UniProt P41595); conditions: Table 1; cited from earlier work
[4] = biological target: 5-HT2A receptor (Homo sapiens, UniProt P28223); conditions: Table 1; cited from earlier work
[5] = biological target: 5-HT7 receptor (Homo sapiens, UniProt P34969); conditions: Table 1; cited from earlier work
[6] = biological target: T3, 5-HT2C receptor (Homo sapiens, UniProt P28335); conditions: Table 1; cited from earlier work
T3 sequence (P28335 33-458): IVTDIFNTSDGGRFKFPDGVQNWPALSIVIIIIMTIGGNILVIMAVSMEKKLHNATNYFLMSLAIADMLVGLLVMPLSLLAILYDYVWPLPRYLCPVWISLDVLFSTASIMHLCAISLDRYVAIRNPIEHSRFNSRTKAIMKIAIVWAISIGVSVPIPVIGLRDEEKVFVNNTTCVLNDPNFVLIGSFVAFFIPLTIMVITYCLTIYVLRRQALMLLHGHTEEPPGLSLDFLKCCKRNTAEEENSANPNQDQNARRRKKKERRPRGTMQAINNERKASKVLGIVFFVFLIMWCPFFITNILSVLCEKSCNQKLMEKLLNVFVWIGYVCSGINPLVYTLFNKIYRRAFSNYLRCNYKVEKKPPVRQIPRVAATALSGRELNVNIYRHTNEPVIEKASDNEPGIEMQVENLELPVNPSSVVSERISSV

[7] = biological target: T4, D2 receptor (Homo sapiens, UniProt P14416); conditions: Table 1; cited from earlier work
[8] = biological target: T5, 5-HT1A receptor (Homo sapiens, UniProt P08908); conditions: Table 1, cited from earlier work
T5 sequence (P08908 1-422): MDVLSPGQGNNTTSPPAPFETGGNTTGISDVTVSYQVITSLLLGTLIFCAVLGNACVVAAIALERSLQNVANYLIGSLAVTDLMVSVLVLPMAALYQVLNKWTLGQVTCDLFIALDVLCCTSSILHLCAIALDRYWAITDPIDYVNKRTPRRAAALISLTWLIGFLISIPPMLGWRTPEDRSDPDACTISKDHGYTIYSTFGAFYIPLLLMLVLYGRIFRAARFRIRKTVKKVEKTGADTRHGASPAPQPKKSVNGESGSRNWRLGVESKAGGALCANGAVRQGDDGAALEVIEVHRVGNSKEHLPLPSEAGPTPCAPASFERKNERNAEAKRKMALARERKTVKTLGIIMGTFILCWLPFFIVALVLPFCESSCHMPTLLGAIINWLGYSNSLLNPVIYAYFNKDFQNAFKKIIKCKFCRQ

[9] = biological target: T4, D2 receptor; test: NIMH-PDSP receptor binding affinity, D2; conditions: Table 1; MTA = Missed 50% of threshold inhibition
[10] = biological target: T2, 5-HT2B receptor; test: NIMH-PDSP receptor binding affinity, 5-HT2B; conditions: Table 1; MTA = Missed 50% of threshold inhibition

T2 sequence (P41595 whole entry): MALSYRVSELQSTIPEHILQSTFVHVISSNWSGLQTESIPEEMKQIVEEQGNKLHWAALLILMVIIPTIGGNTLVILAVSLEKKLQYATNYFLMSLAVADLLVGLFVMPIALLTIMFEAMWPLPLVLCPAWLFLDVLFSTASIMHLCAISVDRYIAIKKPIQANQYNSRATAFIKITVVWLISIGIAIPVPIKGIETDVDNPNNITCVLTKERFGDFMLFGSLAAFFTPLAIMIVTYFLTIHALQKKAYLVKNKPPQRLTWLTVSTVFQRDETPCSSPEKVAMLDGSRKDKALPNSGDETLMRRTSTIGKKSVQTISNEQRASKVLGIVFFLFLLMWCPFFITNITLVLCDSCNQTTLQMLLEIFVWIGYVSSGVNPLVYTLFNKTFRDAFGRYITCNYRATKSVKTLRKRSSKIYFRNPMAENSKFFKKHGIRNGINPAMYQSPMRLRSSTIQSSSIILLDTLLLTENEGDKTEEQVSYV
T4 sequence (P14416 whole entry): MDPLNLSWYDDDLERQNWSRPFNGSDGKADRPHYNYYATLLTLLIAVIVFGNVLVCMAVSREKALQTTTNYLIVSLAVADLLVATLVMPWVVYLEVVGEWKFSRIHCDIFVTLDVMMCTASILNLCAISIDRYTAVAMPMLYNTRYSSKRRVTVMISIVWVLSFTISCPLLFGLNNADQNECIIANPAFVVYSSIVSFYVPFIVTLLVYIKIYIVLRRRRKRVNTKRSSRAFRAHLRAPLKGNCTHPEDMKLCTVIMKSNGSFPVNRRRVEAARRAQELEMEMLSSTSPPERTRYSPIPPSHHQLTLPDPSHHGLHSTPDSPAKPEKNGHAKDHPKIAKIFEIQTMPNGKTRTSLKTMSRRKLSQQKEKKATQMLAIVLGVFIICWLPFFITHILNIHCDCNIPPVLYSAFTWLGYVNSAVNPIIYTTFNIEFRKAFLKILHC
Sequence of H1 receptor (P35367 whole entry): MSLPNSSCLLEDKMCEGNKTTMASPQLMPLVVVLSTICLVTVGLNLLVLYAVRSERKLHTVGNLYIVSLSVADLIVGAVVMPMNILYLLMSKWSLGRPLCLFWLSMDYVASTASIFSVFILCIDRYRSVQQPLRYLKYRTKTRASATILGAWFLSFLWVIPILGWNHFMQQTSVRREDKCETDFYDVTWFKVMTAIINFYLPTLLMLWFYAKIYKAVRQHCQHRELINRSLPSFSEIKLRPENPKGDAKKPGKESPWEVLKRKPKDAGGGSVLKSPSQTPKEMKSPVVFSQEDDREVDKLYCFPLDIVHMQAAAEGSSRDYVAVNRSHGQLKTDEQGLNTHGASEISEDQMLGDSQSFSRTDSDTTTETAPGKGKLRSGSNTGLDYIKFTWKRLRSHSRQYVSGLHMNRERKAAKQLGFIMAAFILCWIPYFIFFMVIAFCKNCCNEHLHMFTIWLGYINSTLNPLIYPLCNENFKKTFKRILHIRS
Sequence of 5-HT2A receptor (P28223 whole entry): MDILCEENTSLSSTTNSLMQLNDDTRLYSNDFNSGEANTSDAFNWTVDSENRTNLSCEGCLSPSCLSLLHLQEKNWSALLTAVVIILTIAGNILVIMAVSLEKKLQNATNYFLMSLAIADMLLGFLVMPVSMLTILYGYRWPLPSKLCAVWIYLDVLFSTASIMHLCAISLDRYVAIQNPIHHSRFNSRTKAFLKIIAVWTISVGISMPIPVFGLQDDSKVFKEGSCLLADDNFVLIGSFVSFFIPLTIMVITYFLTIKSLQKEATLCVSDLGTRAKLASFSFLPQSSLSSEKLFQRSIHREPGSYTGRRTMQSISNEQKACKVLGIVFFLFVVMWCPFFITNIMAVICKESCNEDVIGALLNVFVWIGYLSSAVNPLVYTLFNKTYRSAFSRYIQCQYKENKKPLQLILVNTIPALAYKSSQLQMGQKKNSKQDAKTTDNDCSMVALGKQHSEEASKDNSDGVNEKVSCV
Sequence of 5-HT7 receptor (P34969 whole entry): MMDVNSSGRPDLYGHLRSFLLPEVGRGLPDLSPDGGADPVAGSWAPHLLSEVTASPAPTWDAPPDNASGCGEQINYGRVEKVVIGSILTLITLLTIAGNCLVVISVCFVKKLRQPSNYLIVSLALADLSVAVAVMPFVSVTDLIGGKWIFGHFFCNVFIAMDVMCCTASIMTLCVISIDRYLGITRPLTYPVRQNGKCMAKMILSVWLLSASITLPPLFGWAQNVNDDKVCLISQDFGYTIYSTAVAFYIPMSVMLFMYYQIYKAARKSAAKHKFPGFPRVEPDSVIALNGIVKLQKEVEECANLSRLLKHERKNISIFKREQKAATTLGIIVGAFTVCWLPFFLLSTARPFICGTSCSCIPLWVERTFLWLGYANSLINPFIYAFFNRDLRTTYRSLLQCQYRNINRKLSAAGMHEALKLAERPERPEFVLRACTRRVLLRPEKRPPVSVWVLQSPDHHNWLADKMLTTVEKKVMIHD

c1ccc2c(c1)CCN(CCCCc1nc3ccccc3s1)C2 [Compound 1a, 2-(4-(3,4-Dihydroisoquinolin-2(1H)-yl)butyl)benzo[d]thiazole]
pKi±SEM H1 [1]: 6.23±0.08 | pKi±SEM D4 [2]: 7.17±0.05 | pKi±SEM 5-HT2B [3]: 7.74±0.05 | pKi±SEM 5-HT2A [4]: 5.77±0.06 | pKi±SEM 5-HT7 [5]: 7.66±0.06 | pKi±SEM 5-HT2C [6]: 6.04±0.04 | pKi±SEM D2 [7]: 6.78±0.09 | pKi±SEM 5-HT1A [8]: 8±0.03 | Ki ([8]; read-out: Ki (nM) 5-HT1A, MTA = Missed 50% of threshold inhibition): 10 nM

Br.c1ccc2c(c1)CCN(CCCc1nc3ccccc3s1)C2 [Compound 1b, 2-(3-(3,4-Dihydroisoquinolin-2(1H)-yl)propyl)benzo[d]thiazole hydrobromide]
Ki (nM) D2 [9]: MTA

Cl.Cl.c1ccc2c(c1)CCN(CCCc1nc3ccccc3[nH]1)C2 [Compound 1d, 2-(3-(1H-benzo[d]imidazol-2-yl)propyl)-1,2,3,4-tetrahydroisoquinoline]
Ki (nM) 5-HT2B [10]: MTA
